From ChEMBL document CHEMBL1201862, “PubChem BioAssay data set” (2004)
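Briefly, cells in 96-well plates were exposed to five compound concentrations for 48 h, and endpoints were estimated by linear interpolation. Here, GI50 denotes the concentration required for 50% inhibition of growth.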 The source made the active and inactive calls. Cut-off read from the data, not from the text of the source: active = GI50 up to about 1.1 µM and inactive = higher.

Key:
Assay in all cases: NCI-60 cell line screen, 48 h
SK-MEL-5 = tested on: SK-MEL-5
SK-MEL-2 = tested on: SK-MEL-2
SF-268 = tested on: SF-268
OVCAR-3 = tested on: OVCAR-3
A498 = tested on: A498
UACC-62 = tested on: UACC-62
NCI-H226 = tested on: NCI-H226
COLO 205 = tested on: COLO 205
LOX IMVI = tested on: LOX IMVI
786-0 = tested on: 786-0
MOLT-4 = tested on: MOLT-4
OVCAR-8 = tested on: OVCAR-8
ACHN = tested on: ACHN
OVCAR-5 = tested on: OVCAR-5
SN12C = tested on: SN12C
HCT-15 = tested on: HCT-15
SF-295 = tested on: SF-295
RXF 393 = tested on: RXF 393
U-251 = tested on: U-251
DMS-114 = tested on: DMS-114
HOP-62 = tested on: HOP-62
NCI-H23 = tested on: NCI-H23
SK-OV-3 = tested on: SK-OV-3
HT-29 = tested on: HT-29
SNB-19 = tested on: SNB-19
TK-10 = tested on: TK-10
K562 = tested on: K562
HOP-92 = tested on: HOP-92
SNB-78 = tested on: SNB-78
EKVX = tested on: EKVX
HOP-18 = tested on: HOP-18
M19-MEL = tested on: M19-MEL
CCRF-CEM = tested on: CCRF-CEM
RXF 631 = tested on: RXF 631
M14 = tested on: M14
NCI-H460 = tested on: NCI-H460
DLD-1 = tested on: DLD-1
SW-620 = tested on: SW-620
DMS-273 = tested on: DMS-273
SNB-75 = tested on: SNB-75
OVCAR-4 = tested on: OVCAR-4
HCT-116 = tested on: HCT-116
CAKI-1 = tested on: CAKI-1
UO-31 = tested on: UO-31
A549 = tested on: A549
HL-60 = tested on: HL-60
UACC-257 = tested on: UACC-257
HCC 2998 = tested on: HCC 2998
SF-539 = tested on: SF-539
KM12 = tested on: KM12
IGROV-1 = tested on: IGROV-1
SK-MEL-28 = tested on: SK-MEL-28
KM-20L2 = tested on: KM-20L2
Malme-3M = tested on: Malme-3M
NCI-H522 = tested on: NCI-H522
LXFL 529 = tested on: LXFL 529
RPMI-8226 = tested on: RPMI-8226

CN(C)CCNC(=O)c1cccc2nc3ccc4ccccc4c3nc12
GI50 (SK-MEL-5): 0.105 µM (active)
GI50 (SK-MEL-2): 0.177 µM (active)
GI50 (SF-268): 0.0592 µM (active)
GI50 (OVCAR-3): 0.169 µM (active)
GI50 (A498): 0.0832 µM (active)
GI50 (UACC-62): 0.126 µM (active)
GI50 (NCI-H226): 0.178 µM (active)
GI50 (COLO 205): 0.0434 µM (active)
GI50 (LOX IMVI): 0.0726 µM (active)
GI50 (786-0): 0.125 µM (active)
GI50 (MOLT-4): 0.0324 µM (active)
GI50 (OVCAR-8): 0.0574 µM (active)
GI50 (ACHN): 0.0658 µM (active)
GI50 (OVCAR-5): 0.21 µM (active)
GI50 (SN12C): 0.0478 µM (active)
GI50 (HCT-15): 0.0598 µM
GI50 (SF-295): 0.0989 µM (active)
GI50 (RXF 393): 0.0583 µM (active)
GI50 (U-251): 0.112 µM (active)
GI50 (DMS-114): 0.121 µM (active)
GI50 (HOP-62): 0.147 µM (active)
GI50 (NCI-H23): 0.0942 µM (active)
GI50 (SK-OV-3): 0.144 µM (active)
GI50 (HT-29): 0.0499 µM (active)
GI50 (SNB-19): 0.132 µM (active)
GI50 (TK-10): 0.139 µM (active)
GI50 (K562): 0.0931 µM (active)
GI50 (HOP-92): 0.0957 µM (active)
GI50 (SNB-78): 0.138 µM (active)
GI50 (EKVX): 0.126 µM (active)
GI50 (HOP-18): 0.197 µM (active)
GI50 (M19-MEL): 0.0946 µM (active)
GI50 (CCRF-CEM): 0.0673 µM (active)
GI50 (RXF 631): 0.0405 µM (active)
GI50 (M14): 0.2 µM (active)
GI50 (NCI-H460): 0.0266 µM (active)
GI50 (DLD-1): 0.047 µM (active)
GI50 (SW-620): 0.0181 µM (active)
GI50 (DMS-273): 0.0362 µM (active)
GI50 (SNB-75): 0.12 µM (active)
GI50 (OVCAR-4): 0.114 µM (active)
GI50 (HCT-116): 0.0247 µM (active)
GI50 (CAKI-1): 0.0518 µM (active)
GI50 (UO-31): 0.0685 µM (active)
GI50 (A549): 0.0481 µM (active)
GI50 (HL-60): 0.114 µM (active)
GI50 (UACC-257): 0.212 µM (active)
GI50 (HCC 2998): 0.126 µM (active)
GI50 (SF-539): 0.0652 µM (active)
GI50 (KM12): 0.131 µM (active)
GI50 (IGROV-1): 0.0817 µM (active)
GI50 (SK-MEL-28): 0.29 µM (active)

O=C(Nc1ccc(Cl)cc1Cl)C1C(=O)N(c2ccc(Cl)cc2Cl)C(=O)/C1=N\Nc1ccc([N+](=O)[O-])cc1[N+](=O)[O-] (configuration not stated)
GI50 (SK-MEL-5): 79.8 µM (inactive)
GI50 (SK-MEL-2): 42.9 µM (inactive)
GI50 (SF-268): 22.3 µM (inactive)
GI50 (OVCAR-3): 47.2 µM (inactive)
GI50 (KM-20L2): 26.4 µM (inactive)
GI50 (A498): 47.5 µM (inactive)
GI50 (UACC-62): 15.8 µM (inactive)
GI50 (NCI-H226): 39.6 µM (inactive)
GI50 (COLO 205): 52.5 µM (inactive)
GI50 (786-0): 67.8 µM (inactive)
GI50 (MOLT-4): 22 µM (inactive)
GI50 (OVCAR-8): 60.8 µM (inactive)
GI50 (ACHN): 74.5 µM (inactive)
GI50 (OVCAR-5): 44.5 µM (inactive)
GI50 (SN12C): 74.6 µM (inactive)
GI50 (HCT-15): 9.82 µM
GI50 (SF-295): 45.3 µM (inactive)
GI50 (Malme-3M): 64 µM (inactive)
GI50 (U-251): 48.8 µM (inactive)
GI50 (DMS-114): 13.2 µM (inactive)
GI50 (HOP-62): 45.8 µM (inactive)
GI50 (NCI-H23): 23.9 µM (inactive)
GI50 (SK-OV-3): > 100 µM (inactive)
GI50 (HT-29): 35.8 µM (inactive)
GI50 (SNB-19): 39.1 µM (inactive)
GI50 (TK-10): > 100 µM (inactive)
GI50 (K562): 14.7 µM (inactive)
GI50 (HOP-92): 23.3 µM (inactive)
GI50 (SNB-78): > 100 µM (inactive)
GI50 (EKVX): > 100 µM (inactive)
GI50 (HOP-18): 17.9 µM (inactive)
GI50 (NCI-H522): 21.5 µM (inactive)
GI50 (M19-MEL): 59.3 µM (inactive)
GI50 (CCRF-CEM): 23.1 µM (inactive)
GI50 (RXF 631): 62.2 µM (inactive)
GI50 (M14): 52 µM (inactive)
GI50 (NCI-H460): 59.8 µM (inactive)
GI50 (LXFL 529): 13.9 µM (inactive)
GI50 (DLD-1): 46.8 µM (inactive)
GI50 (SW-620): > 100 µM (inactive)
GI50 (DMS-273): 46.6 µM (inactive)
GI50 (SNB-75): 27.3 µM (inactive)
GI50 (OVCAR-4): 43.5 µM (inactive)
GI50 (HCT-116): 26.9 µM (inactive)
GI50 (CAKI-1): 54.5 µM (inactive)
GI50 (UO-31): 15.8 µM (inactive)
GI50 (A549): > 100 µM (inactive)
GI50 (HL-60): 35.2 µM (inactive)
GI50 (UACC-257): 29.4 µM (inactive)
GI50 (HCC 2998): 37.6 µM (inactive)
GI50 (SF-539): 36.6 µM (inactive)
GI50 (KM12): 34.5 µM (inactive)
GI50 (RPMI-8226): 22.7 µM (inactive)
GI50 (IGROV-1): 83 µM (inactive)
GI50 (SK-MEL-28): 47.8 µM (inactive)
